This note sets out measurements from patent US9109004B2, “Progesterone receptor antagonists” (Bayer Intellectual Property GmbH, priority 2010, dated 2015).

One series relates to pregnant rats. In words: Test as abortifacient in female rats (termination of early pregnancy). The format is in vivo, rat. The following applies: d5-d7 p.c., autopsy d9 p.c. The method, then:
Test as Abortifacient in Female Rats
The antagonistic action of the compounds according to the invention was tested on pregnant rats (6 rats per group) on day 5 to 7 post coitum in conventional conditions of husbandry and feeding.
After successful mating, the pregnant animals (presence of sperm in the vaginal smear on day 1 of pregnancy=d1 p.c.) were randomized and were divided into the treatment group and the control group. The animals then received, subcutaneously or orally, in each case 0.15; 0.5; 1.5 or 5 mg/kg of the test compound or 1.0 ml/kg of vehicle (benzyl benzoate/castor oil: 1+4 [v/v]) daily from day 5 to day 7 (d5-d7 p.c.).
Autopsy was carried out on day 9 (d9 p.c.). For characterization of progesterone-receptor-antagonistic action, the uterus was investigated for the presence of nidation sites. Complete absence, but also the presence of pathological, haemorrhagic or otherwise abnormal nidation sites on day 9 (d9 p.c.) was assessed as abortion.

Series [1] is described as follows: Clearance and half-life after intravenous application in rats. Format: in vivo, rat. The following applies: female rats, i.v. bolus 0.3-0.5 mg/kg. The method, then: Determination of Clearance and Half-Life after Intravenous Application in Rats
The in-vivo clearance and half-life of the test substances were determined in female rats with a body weight of approx. 200-250 g. For this, the test substances (in cassette testing, up to 3 different substances per animal) were applied in dissolved form at a dose of 0.3-0.5 mg/kg as a bolus with a volume of 2 ml/kg intravenously (i.v.) in the caudal vein, using compatible solubilizers such as PEG400 and/or ethanol in a compatible amount. Blood samples of approx. 0.2 mL were taken from a polyurethane catheter in the vena jugularis at the time points 2 min, 8 min, 15 min, 30 min, 45 min, 1 h, 2 h, 4 h, 6 h, 8 h, 24 h. The blood samples were kept in lithium-heparin tubes (Monovetten® from Sarstedt) without shaking, and were centrifuged for 15 min at 3000 rpm. A 100 μL aliquot was taken from the supernatant (plasma) and was precipitated by adding 400 μL of cold methanol. The precipitated samples were frozen out overnight at −20° C., then centrifuged once again for 15 min at 3000 rpm before 150 μL of the clear supernatant was taken for the determination of concentration. Analysis was carried out with an Agilent 1200 HPLC system connected to LCMS/MS detection.
Calculation of the pK Parameters (Via Non-Linear Regression by pK Calculation Software): […]

The structures appear in SMILES notation.

Take `C[C@]12C[C@H](c3ccc(-c4ccc(C(N)=O)cc4)cc3)C3=C4CCC(=O)C=C4CC[C@H]3[C@@H]1CC[C@@]2(O)C(F)(F)C(F)(F)F` [Example 79, 4′-[(11β,17β)-17-Hydroxy-3-oxo-17-(pentafluoroethyl)estra-4,9-dien-11-yl]biphenyl-4-carboxamide]: the Abortion rate with pregnant rats (daily dose 0.5 mg/kg p.o.), in the series with pregnant rats (daily dose 1.5 mg/kg p.o.) and with pregnant rats (daily dose 5.0 mg/kg p.o.) was 100% each time. Also, the CLblood in series [1] was determined as 6.7 mL/min/kg. Also, the half-life in series [1] (rat, plasma, iv, terminal half-life, read-out: t½ (converted)) is 9 h.
